Results on 26 compounds are retold here after PubChem BioAssay (NCI).

The structures appear in SMILES notation.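 Five concentrations, 48 hours, 96-well plates. GI50 = concentration required for 50% inhibition of growth. TGI denotes the concentration required for complete inhibition of growth.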 Bounds are passed on as bounds.

The first assay deals with A498 renal. The experiment in a line: growth of human tumour cells (NCI), 48 h.
For the compound `CN1NC(=Nc2ccccc2)Sc2c1cnn(-c1ccccc1)c2=O`, the TGI was above 100 µM.
As to `CCc1ccccc1NC(=O)c1sc2nc3c(cc2c1N)C(=O)CCC3`, the GI50 is 0.22 µM and the TGI worked out at 5.52 µM.
For the compound `O=C(Nc1ccc(-n2cc(-c3ccncc3)c(-c3ccc(Cl)c(O)c3)n2)cc1)Nc1ccc(Cl)c(C(F)(F)F)c1`, the GI50 was 1.63 µM and the TGI is 9.29 µM.
For the compound `COC(=O)/C(C)=C/[N+](=O)[O-]`, the TGI was 43.3 µM.
`CC(C)OC(=O)NNc1cc(Cl)ccc1Cl` displayed a TGI of 96.6 µM.
Still for that read-out and setting: with `CCCCOC(=O)NC(=O)c1cn(CCCOC(=O)NCCCCCCNC(=O)OCCCn2cc(C(=O)NC(=O)OCCCC)c(=O)[nH]c2=O)c(=O)[nH]c1=O` the figure was above 100 µM.
`COc1cc(C2=C(c3cn(C)c4ccccc34)COC2=O)cc(OC)c1OC`: the GI50 is 0.0171 µM and the TGI was 0.109 µM.
As to `COc1cc(C)c2c(c1C)OC(=O)c1c(C)c(Cl)c(O)c(C=O)c1O2`, the TGI was determined as 33.2 µM.
Still for that read-out and setting: with `CC1(C)O/C(=C\c2ccccc2)C(=O)/C(=C/c2ccccc2)O1` the figure was above 100 µM; with `N=C(N)SCc1cccc(-c2nc3ccccc3c(=O)o2)c1`, above 100 µM; with `O=C1CC2C(=O)N(Cc3ccccc3)C1C=C2S(=O)(=O)c1ccccc1` (configuration not stated), above 100 µM.
Take `COc1ccc(Nc2c3ccccc3nc3occ(Cl)c23)cc1`: the GI50 was below 0.01 µM and the TGI amounted to 0.121 µM.
In the case of `Cc1ccc(S(=O)(=O)NCCNc2nccc(-c3c(-c4ccc(F)cc4)nc4sccn34)n2)cc1`, the GI50 is 2.33 µM and the TGI is 14.4 µM.
For the compound `N.N.N.N.[Cl-].[Co+3].[N-]=[N+]=[N-].[N-]=[N+]=[N-]`, the GI50 was above 100 µM and the TGI is above 100 µM.
Regarding `CC(C)CCCC(C)[C@H]1CCC2[C@H]3C(CC[C@@]21C)[C@@]1(C)CCC=C[C@]12C[C@@H]2[C@@H]3O` (some centres not stated), the TGI was above 100 µM.
`O=C(Nc1cc(Cl)ccc1Cl)C(=O)C(c1cnc2ccccc2n1)[N+](=O)[O-]` (configuration not stated): the TGI was above 100 µM.
As for `COC(=O)CCC(=O)CC1CC(=O)C2CCCN12` (configuration not stated), the TGI was above 100 µM.
Still for that read-out and setting: with `COc1ccc(OC)c2c(/C=C/c3ccc(N(C)C)cc3)ccnc12` the figure was above 10 µM; with `C=C1C(=O)O[C@H]2/C=C(/C)C3=CC(=O)[C@@](C)(C[C@@H](OC(=O)/C(C)=C\C)C12)O3` (some centres not stated), above 41.4 µM.
Still for that read-out and setting: in the case of `O=S1OC2(c3ccccc3-c3ccccc32)c2ccccc21` (configuration not stated) it was above 100 µM; in that of `CCOC(=N)CC(=O)Nc1cccc(C)c1C`, above 100 µM.

A further assay has as its system HCT-15 colon. The assay can be described thus: growth of human tumour cells (NCI), 48 h.
The compound `COc1cc2ccc3c4cc(OC)c(OC(C)C)cc4cnc3c2cc1OC` returned a TGI above 100 µM.
Take `CN1NC(=Nc2ccccc2)Sc2c1cnn(-c1ccccc1)c2=O`: the TGI is above 100 µM.
As to `CCc1ccccc1NC(=O)c1sc2nc3c(cc2c1N)C(=O)CCC3`, the GI50 is 0.406 µM and the TGI is above 100 µM.
In turn, `CCOC(=O)c1c[nH]c2oc(/C=N/N3CC(CN4CCOCC4)OC3=O)cc2c1=O` (configuration not stated) had a TGI above 100 µM.
Turning to `O=C(Nc1ccc(-n2cc(-c3ccncc3)c(-c3ccc(Cl)c(O)c3)n2)cc1)Nc1ccc(Cl)c(C(F)(F)F)c1`, the GI50 is 1.31 µM and the TGI came to 2.95 µM.
In turn, `CC(=O)c1sc(-c2nc(C)c(C(=O)/C=C\c3ccc(/C=C\C(=O)c4sc(-c5nc(C)c(C(C)=O)s5)nc4C)cc3)s2)nc1C` returned a TGI above 100 µM.
In the case of `COC(=O)/C(C)=C/[N+](=O)[O-]`, the TGI came to 34.4 µM.
The compound `CC(C)OC(=O)NNc1cc(Cl)ccc1Cl` returned a TGI above 100 µM.
The compound `CCCCOC(=O)NC(=O)c1cn(CCCOC(=O)NCCCCCCNC(=O)OCCCn2cc(C(=O)NC(=O)OCCCC)c(=O)[nH]c2=O)c(=O)[nH]c1=O` showed a TGI above 100 µM.
`COc1cc(C2=C(c3cn(C)c4ccccc34)COC2=O)cc(OC)c1OC`: the GI50 is 0.0416 µM and the TGI was found to be 2.28 µM.
Regarding `COC(=O)/C(C=O)=C/Sc1ccccc1`, the TGI is above 100 µM.
`COc1ccc2c(c1)[C@@]13CCCC[C@H]1[C@@H](C2)N(C)CC3=O` registered a TGI of 32.1 µM.
Still for that read-out and setting: with `N=C(N)SCc1cccc(-c2nc3ccccc3c(=O)o2)c1` the figure was above 100 µM.
For `COc1ccc(Nc2c3ccccc3nc3occ(Cl)c23)cc1`, the GI50 is below 0.01 µM.
For the compound `N.N.N.N.[Cl-].[Co+3].[N-]=[N+]=[N-].[N-]=[N+]=[N-]`, the GI50 was above 100 µM and the TGI is above 100 µM.
Compound `CC(C)CCCC(C)[C@H]1CCC2[C@H]3C(CC[C@@]21C)[C@@]1(C)CCC=C[C@]12C[C@@H]2[C@@H]3O` (some centres not stated) returned a TGI above 100 µM.
Still for that read-out and setting: with `O=C(Nc1cc(Cl)ccc1Cl)C(=O)C(c1cnc2ccccc2n1)[N+](=O)[O-]` (configuration not stated) the figure was above 100 µM.
Compound `COc1ccc(OC)c2c(/C=C/c3ccc(N(C)C)cc3)ccnc12` displayed a TGI above 10 µM.
Regarding `C=C1C(=O)O[C@H]2/C=C(/C)C3=CC(=O)[C@@](C)(C[C@@H](OC(=O)/C(C)=C\C)C12)O3` (some centres not stated), the TGI was found to be 1.45 µM.
Consider `O=S1OC2(c3ccccc3-c3ccccc32)c2ccccc21` (configuration not stated), for which the TGI is above 100 µM.

The subject of the next assay is K-562 leukemia. The assay can be described thus: growth of human tumour cells (NCI), 48 h.
Regarding `COc1cc2ccc3c4cc(OC)c(OC(C)C)cc4cnc3c2cc1OC`, the TGI was above 100 µM.
For the compound `CN1NC(=Nc2ccccc2)Sc2c1cnn(-c1ccccc1)c2=O`, the TGI is above 100 µM.
Consider `CCc1ccccc1NC(=O)c1sc2nc3c(cc2c1N)C(=O)CCC3`, for which the GI50 was 0.275 µM and the TGI is above 100 µM.
`CCOC(=O)c1c[nH]c2oc(/C=N/N3CC(CN4CCOCC4)OC3=O)cc2c1=O` (configuration not stated) showed a TGI above 100 µM.
Turning to `O=C(Nc1ccc(-n2cc(-c3ccncc3)c(-c3ccc(Cl)c(O)c3)n2)cc1)Nc1ccc(Cl)c(C(F)(F)F)c1`, the GI50 was 1.89 µM and the TGI is 7.37 µM.
`CC(=O)c1sc(-c2nc(C)c(C(=O)/C=C\c3ccc(/C=C\C(=O)c4sc(-c5nc(C)c(C(C)=O)s5)nc4C)cc3)s2)nc1C` came in with a TGI above 100 µM.
As to `COC(=O)/C(C)=C/[N+](=O)[O-]`, the TGI is 13.2 µM.
In the case of `CC(C)OC(=O)NNc1cc(Cl)ccc1Cl`, the TGI is above 100 µM.
In the case of `CCCCOC(=O)NC(=O)c1cn(CCCOC(=O)NCCCCCCNC(=O)OCCCn2cc(C(=O)NC(=O)OCCCC)c(=O)[nH]c2=O)c(=O)[nH]c1=O`, the TGI was above 100 µM.
Regarding `COc1cc(C2=C(c3cn(C)c4ccccc34)COC2=O)cc(OC)c1OC`, the GI50 is 0.037 µM and the TGI is above 100 µM.
`COc1cc(C)c2c(c1C)OC(=O)c1c(C)c(Cl)c(O)c(C=O)c1O2`: the TGI is 45.6 µM.
Compound `COC(=O)/C(C=O)=C/Sc1ccccc1` yielded a TGI above 100 µM.
On the same count and under the same terms, with `COc1ccc2c(c1)[C@@]13CCCC[C@H]1[C@@H](C2)N(C)CC3=O` the figure was above 100 µM.
